Measured values reported in patent publication US11072632B2, “Inhibitors of 17β-HSD1, 17β-HSD3 and 17β-HSD10” (UNIVERSITÉ LAVAL, priority 2011, dated 2021).
Like-named read-outs stand apart in the source and are kept apart here.

How the values were obtained:
17β-HSD3 [1] = target: T1, 17β-HSD3 (Homo sapiens, UniProt P37058); experiment: Inhibition of 17β-HSD3 in homogenated HEK-293 cells; format: biochemical; settings: for inhibition at 1 µM: read-out: Homo (%) (1.0 μM), Table 4
T1 construct: expressed in transfected cells; host or cells: HEK-293 (homogenate)
T1 sequence (P37058 1-310): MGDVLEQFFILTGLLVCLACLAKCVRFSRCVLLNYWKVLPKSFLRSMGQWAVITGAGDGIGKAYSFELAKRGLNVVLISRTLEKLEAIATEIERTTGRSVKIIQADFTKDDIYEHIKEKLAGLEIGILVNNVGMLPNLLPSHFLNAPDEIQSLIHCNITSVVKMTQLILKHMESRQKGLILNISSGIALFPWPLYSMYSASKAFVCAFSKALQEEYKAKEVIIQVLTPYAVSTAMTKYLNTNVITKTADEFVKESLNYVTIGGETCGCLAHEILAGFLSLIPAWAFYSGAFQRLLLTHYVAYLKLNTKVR

17β-HSD3 [2] = target: T1, 17β-HSD3; experiment: Inhibition of 17β-HSD3 in intact HEK-293 cells; format: cell-based; settings: 0.1 μM; for inhibition at 0.1 µM: HEK293, 1 h
[3] = Table 3, read-out: Homo (%) (0.01 μM)
[4] = Table 3, read-out: Homo (%) (0.1 μM)
[5] = Table 3, read-out: Intact cells (%) (0.1 μM)
[6] = read-out: Homo (%) (0.01 μM), Table 4
[7] = read-out: Homo (%) (0.1 μM), Table 4
[8] = read-out: Intact cells (%) (0.1 μM), Table 4

C[C@]12CC[C@](O)(CN3CCN(C(=O)c4cccc(C(F)(F)F)c4)CC3)C[C@@H]1CC[C@@H]1[C@@H]2CC[C@]2(C)C(=O)CC[C@@H]12 [Compound 12d, (3α,5α)-3-hydroxy-3-[(4-{[3-(trifluoromethyl)phenyl]carbonyl}piperazin-1-yl)methyl]androstan-17-one]
inhibition at 0.01 µM (17β-HSD3 [1]; [3]): 10%
inhibition at 0.1 µM (17β-HSD3 [1]; [4]): 92%
inhibition at 0.1 µM (17β-HSD3 [2]; [5]): 91%

C[C@]12CC[C@](O)(CN3CCN(C(=O)c4ccc(C(F)(F)F)cc4)CC3)C[C@@H]1CC[C@@H]1[C@@H]2CC[C@]2(C)C(=O)CC[C@@H]12 [Compound 12e, (3α,5α)-3-hydroxy-3-[(4-{[4-(trifluoromethyl)phenyl]carbonyl}piperazin-1-yl)methyl]androstan-17-one]
inhibition at 0.01 µM (17β-HSD3 [1]; [3]): 22%
inhibition at 0.1 µM (17β-HSD3 [1]; [4]): 84%
inhibition at 0.1 µM (17β-HSD3 [2]; [5]): 56%

CC1CN(C(=O)c2ccccc2)C(C)CN1C[C@@]1(O)CC[C@@]2(C)[C@@H](CC[C@@H]3[C@@H]2CC[C@]2(C)C(=O)CC[C@@H]32)C1 (stereo partly drawn) [Compound 13a, (3α,5α)-3-{[(2ξ,5ξ)-2,5-dimethyl-4-(phenylcarbonyl)piperazin-1-yl]methyl}-3-hydroxyandrostan-17-one]
Homo (%) (0.01 μM) (17β-HSD3 [1]; Table 3): 24%
Homo (%) (0.1 μM) (17β-HSD3 [1]; Table 3): 87%
Intact cells (%) (0.1 μM) (17β-HSD3 [2]; Table 3): 78%

CC1CN(C(=O)C2CCCCC2)C(C)CN1C[C@@]1(O)CC[C@@]2(C)[C@@H](CC[C@@H]3[C@@H]2CC[C@]2(C)C(=O)CC[C@@H]32)C1 (stereo partly drawn) [Compound 13b, (3α,5α)-3-{[(2ξ,5ξ)-4-(cyclohexylcarbonyl)-2,5-dimethylpiperazin-1-yl]methyl}-3-hydroxyandrostan-17-one]
Homo (%) (0.01 μM) (17β-HSD3 [1]; Table 3): 24%
Homo (%) (0.1 μM) (17β-HSD3 [1]; Table 3): 90%
Intact cells (%) (0.1 μM) (17β-HSD3 [2]; Table 3): 77%

CC1CN(C(=O)c2cccc(C(F)(F)F)c2)C(C)CN1CC1(O)CCC2(C)C(CCC3C4CCC(=O)C4(C)CCC32)C1 (stereo not drawn) [Compound 13c, (3α,5α)-3-{[(2ξ,5ξ)-2,5-dimethyl-4-{[3-(trifluoromethyl)phenyl]carbonyl}piperazin-1-yl]methyl}-3-hydroxyandrostan-17-one]
Homo (%) (0.01 μM) (17β-HSD3 [1]; Table 3): 28%
Homo (%) (0.1 μM) (17β-HSD3 [1]; Table 3): 89%
Intact cells (%) (0.1 μM) (17β-HSD3 [2]; Table 3): 70%

Cc1ccc(CN2C[C@]3(CC[C@@]4(C)[C@@H](CC[C@@H]5[C@@H]4CC[C@]4(C)C(=O)CC[C@@H]54)C3)OC2=O)cc1 [Compound 17b, (3R,5S,8R,9S,10S,13S,14S)-10,13-dimethyl-3′-(4-methylbenzyl)tetrahydrodecahydro-2′H-spiro[cyclopenta[α]phenanthrene-3,5′-[1,3]oxazolidine]-2′,17(2H)-dione]
inhibition at 0.01 µM (17β-HSD3 [1]; [6]): 17%
inhibition at 0.1 µM (17β-HSD3 [1]; [7]): 81%
inhibition at 1 µM (17β-HSD3 [1]): 93%
inhibition at 0.1 µM (17β-HSD3 [2]; [8]): 38%

COc1ccc(CN2C[C@]3(CC[C@@]4(C)[C@@H](CC[C@@H]5[C@@H]4CC[C@]4(C)C(=O)CC[C@@H]54)C3)OC2=O)cc1 [Compound 17c, (3R,5S,8R,9S,10S,13S,14S)-3′-(4-methoxybenzyl)-10,13-dimethyltetradecahydro-2′H-spiro[cyclopenta[α]phenanthrene-3,5′-[1,3]oxazolidine]-2′,17(2H)-dione]
inhibition at 0.01 µM (17β-HSD3 [1]; [6]): 5%
inhibition at 0.1 µM (17β-HSD3 [1]; [7]): 84%
inhibition at 1 µM (17β-HSD3 [1]): 93%
inhibition at 0.1 µM (17β-HSD3 [2]; [8]): 43%

C[C@]12CC[C@@]3(C[C@@H]1CC[C@@H]1[C@@H]2CC[C@]2(C)C(=O)CC[C@@H]12)CN(Cc1ccc(C(F)(F)F)cc1)C(=O)O3 [Compound 17d, (3R,5S,8R,9S,10S,13S,14S)-10,13-dimethyl-3′-[4-(trifluoromethyl)benzyl]tetradecahydro-2′H-spiro[cyclopenta[α]phenanthrene-3,5′-[1,3]oxazolidine]-2′,17(2H)-dione]
inhibition at 0.01 µM (17β-HSD3 [1]; [6]): 25%
inhibition at 0.1 µM (17β-HSD3 [1]; [7]): 80%
inhibition at 0.1 µM (17β-HSD3 [2]; [8]): 43%

C[C@]12CC[C@@]3(C[C@@H]1CC[C@@H]1[C@@H]2CC[C@]2(C)C(=O)CC[C@@H]12)CN(Cc1ccc(C(F)(F)F)nc1)C(=O)O3 [Compound 17e]
inhibition at 0.01 µM (17β-HSD3 [1]; [6]): 3%
inhibition at 0.1 µM (17β-HSD3 [1]; [7]): 65%
inhibition at 0.1 µM (17β-HSD3 [2]; [8]): 36%

C[C@]12CC[C@@]3(C[C@@H]1CC[C@@H]1[C@@H]2CC[C@]2(C)C(=O)CC[C@@H]12)CN(Cc1ccccc1C(F)(F)F)C(=O)O3 [Compound 17f, (3R,5S,8R,9S,10S,13S,14S)-10,13-dimethyl-3′-[2-(trifluoromethyl)benzyl]tetradecahydro-2′H-spiro[cyclopenta[α]phenanthrene-3,5′-[1,3]oxazolidine]-2′,17(2H)-dione]
inhibition at 0.01 µM (17β-HSD3 [1]; [6]): 17%
inhibition at 0.1 µM (17β-HSD3 [1]; [7]): 81%
inhibition at 0.1 µM (17β-HSD3 [2]; [8]): 35%

C[C@]12CC[C@@]3(C[C@@H]1CC[C@@H]1[C@@H]2CC[C@]2(C)C(=O)CC[C@@H]12)CN(Cc1cccc(C(F)(F)F)c1)C(=O)O3 [Compound 17g, (3R,5S,8R,9S,10S,13S,14S)-10,13-dimethyl-3′-[3-(trifluoromethyl)benzyl]tetradecahydro-2′H-spiro[cyclopenta[α]phenanthrene-3,5′-[1,3]oxazolidine]-2′,17(2H)-dione]
inhibition at 0.01 µM (17β-HSD3 [1]; [6]): 16%
inhibition at 0.1 µM (17β-HSD3 [1]; [7]): 80%
inhibition at 0.1 µM (17β-HSD3 [2]; [8]): 36%

C[C@]12CC[C@@]3(C[C@@H]1CC[C@@H]1[C@@H]2CC[C@]2(C)C(=O)CC[C@@H]12)CN(Cc1cc(C(F)(F)F)cc(C(F)(F)F)c1)C(=O)O3 [Compound 17h, (3R,5S,8R,9S,10S,13S,14)-3′-[3,5-bis(trifluoromethyl)benzyl]-10,13-dimethyletradecahydro-2′H-spiro[cyclopenta[α]phenanthrene-3,5′-[1,3]oxazolidine]-2′,17(2H)-dione]
inhibition at 0.01 µM (17β-HSD3 [1]; [6]): 12%
inhibition at 0.1 µM (17β-HSD3 [1]; [7]): 66%
inhibition at 0.1 µM (17β-HSD3 [2]; [8]): 35%

C[C@]12CC[C@@]3(C[C@@H]1CC[C@@H]1[C@@H]2CC[C@]2(C)C(=O)CC[C@@H]12)CN(C1CCCCC1)C(=O)O3 [Compound 17i, (3R,5S,8R,9S,10S,13S,14S)-3′-cyclohexyl-10,13-dimethyltetradecahydro-2′H-spiro[cyclopenta[α]phenanthrene-3,5′-[1,3]oxazolidine]-2′,17(2H)-dione]
inhibition at 0.01 µM (17β-HSD3 [1]; [6]): 13%
inhibition at 0.1 µM (17β-HSD3 [1]; [7]): 75%
inhibition at 1 µM (17β-HSD3 [1]): 78%
inhibition at 0.1 µM (17β-HSD3 [2]; [8]): 29%

Cc1ccc(CN2C[C@]3(CC[C@@]4(C)[C@@H](CC[C@@H]5[C@@H]4CC[C@]4(C)C(=O)C(C)(C)C[C@@H]54)C3)OC2=O)cc1 [Compound 18, (3R,5S,8R,9S,10S,13S,14S)-10,13,16,16-tetramethyl-3′-(4-methylbenzyl)tetrahydrodecahydro-2′H-spiro[cyclopenta[α]phenanthrene-3,5′-[1,3]oxazolidine]-2′,17(2H)-dione]
inhibition at 0.01 µM (17β-HSD3 [1]; [6]): 2%
inhibition at 0.1 µM (17β-HSD3 [1]; [7]): 22%
inhibition at 1 µM (17β-HSD3 [1]): 74%
inhibition at 0.1 µM (17β-HSD3 [2]; [8]): 18%

C[C@]12CC[C@@]3(C[C@@H]1CC[C@@H]1[C@@H]2CC[C@]2(C)C(=O)CC[C@@H]12)CN(CCBr)C(=O)O3 [Compound 22, (3R,5S,8R,9S,10S,13S,14S)-3′-(2-bromoethyl)-10,13-dimethyltetrahydrodecahydro-2′H-spiro[cyclopenta[α]phenanthrene-3,5′-[1,3]oxazolidine]-2′,17(2H)-dione]
inhibition at 0.01 µM (17β-HSD3 [1]; [6]): 17%
inhibition at 1 µM (17β-HSD3 [1]): 93%
inhibition at 0.1 µM (17β-HSD3 [2]; [8]): 31%

Cc1cccc(OCCN2C[C@]3(CC[C@@]4(C)[C@@H](CC[C@@H]5[C@@H]4CC[C@]4(C)C(=O)CC[C@@H]54)C3)OC2=O)c1 [Compound 23a, (3R,5S,8R,9S,10S,13S,14S)-10,13-dimethyl-3′-[2-(3-methylphenoxy)ethyl]tetrahydrodecahydro-2′H-spiro[cyclopenta[α]phenanthrene-3,5′-[1,3]oxazolidine]-2′,17(2H)-dione]
inhibition at 0.01 µM (17β-HSD3 [1]; [6]): 13%
inhibition at 1 µM (17β-HSD3 [1]): 95%
inhibition at 0.1 µM (17β-HSD3 [2]; [8]): 40%

Cc1cccc(S(=O)(=O)CCN2C[C@]3(CC[C@@]4(C)[C@@H](CC[C@@H]5[C@@H]4CC[C@]4(C)C(=O)CC[C@@H]54)C3)OC2=O)c1 [Compound 23b]
inhibition at 0.01 µM (17β-HSD3 [1]; [6]): 0%
inhibition at 0.1 µM (17β-HSD3 [1]; [7]): 52%
inhibition at 1 µM (17β-HSD3 [1]): 93%
inhibition at 0.1 µM (17β-HSD3 [2]; [8]): 5%

C[C@]12CC[C@@]3(C[C@@H]1CC[C@@H]1[C@@H]2CC[C@]2(C)C(=O)CC[C@@H]12)CN(CCN1CCCCC1)C(=O)O3 [Compound 23c, (3R,5S,8R,9S,10S,13S,14S)-10,13-dimethyl-3′-[2-(piperidin-1-yl)ethyl]tetrahydrodecahydro-2′H-spiro[cyclopenta[α]phenanthrene-3,5′-[1,3]oxazolidine]-2′,17(2H)-dione]
inhibition at 0.01 µM (17β-HSD3 [1]; [6]): 0%
inhibition at 0.1 µM (17β-HSD3 [1]; [7]): 0%
inhibition at 1 µM (17β-HSD3 [1]): 21%
Intact cells (%) (0.1 μM), tested in another experiment (17β-HSD3 [2]; Table 4, footnote b): 10^b %

CCN(CCN1C[C@]2(CC[C@@]3(C)[C@@H](CC[C@@H]4[C@@H]3CC[C@]3(C)C(=O)CC[C@@H]43)C2)OC1=O)C1CCCCC1 [Compound 23e, (3R,5S,8R,9S,10S,13S,14S)-3′-{2-[cyclohexyl(ethyl)amino]ethyl}-10,13-dimethyltetradecahydro-2′H-spiro[cyclopenta[α]phenanthrene-3,5′-[1,3]oxazolidine]-2′,17(2H)-dione]
inhibition at 0.01 µM (17β-HSD3 [1]; [6]): 2%
inhibition at 0.1 µM (17β-HSD3 [1]; [7]): 21%
inhibition at 1 µM (17β-HSD3 [1]): 72%
inhibition at 0.1 µM (17β-HSD3 [2]; [8]): 2%
